Patent US8633134B2, “Substituted amidine compounds for combating animal pests” (priority 2008, dated 2014)

Assays:
Format in all cases: in vivo
[1] = system: Diamond Back Moth (Plutella xylostella); test: Diamond back moth leaf dip test; details: foliar, 120 h
Method: The active compound is dissolved at the desired concentration in a mixture of 1:1 (vol:vol) distilled water:acteon. The test solution is prepared at the day of use and in general at concentrations of […].
Leaves of Chinese cabbage were dipped in test solution and air-dried. Treated leaves were placed in petri dished lined with moist filter paper. Mortality was recorded 24, 72, and 120 hours after treatment.

[2] = system: Mediterranean Fruitfly (Ceratitis capitata); test: Mediterranean fruitfly microtiter plate diet test; details: 120 h
Method: For evaluating control of Mediterranean fruitfly (Ceratitis capitata) the test unit consisted of microtiter plates containing an insect diet and 50-80 C. capitata eggs. The compounds were formulated using a solution containing 75% v/v water and 25% v/v DMSO. Different concentrations of formulated compounds were sprayed onto the insect diet at 5 μl, using a custom built micro atomizer, at two replications.
After application, microtiter plates were incubated at about 28±1° C. and about 80±5% relative humidity for 5 days. Egg and larval mortality was then visually assessed.

[3] = system: Orchid Thrips (Dichromothrips corbetti); test: Orchid thrips floral-immersion test; details: 96 h
Method: Dichromothrips corbetti adults used for bioassay are obtained from a colony maintained continuously under laboratory conditions. For testing purposes, the test compound is diluted to a concentration of 300 ppm (wt compound: vol diluent) in a 1:1 mixture of acetone:water (vol:vol), plus 0.01% vol/vol Kinetic® surfactant.
Thrips potency of each compound is evaluated by using a floral-immersion technique. Plastic petri dishes are used as test arenas. All petals of individual, intact orchid flowers are dipped into treatment solution and allowed to dry. Treated flowers are placed into individual petri dishes along with 10-15 adult thrips. The petri dishes are then covered with lids. All test arenas are held under continuous light and a temperature of about 28° C. for duration of the assay. After 4 days, the numbers of live thrips are counted on each flower, and along inner walls of each petri dish. The level of thrips mortality is extrapolated from pre-treatment thrips numbers.

[4] = system: Silverleaf Whitefly (Bemisia argentifolii); test: Silverleaf whitefly cotton plant spray test; details: 72 h, 3 days after treatment, in comparison with untreated controls
Excerpt: (§1) The active compounds were formulated in cyclohexanone as a 10,000 ppm solution supplied in tubes. The tubes were inserted into an automated electrostatic sprayer equipped with an atomizing nozzle and they served as stock solutions for which lower dilutions were made in 50% acetone:50% water (v/v). A nonionic surfactant (Kinetic®) was included in the solution at a volume of 0.01% (v/v).
Cotton plants at the cotyledon stage (one plant per pot) were sprayed by an automated electrostatic plant sprayer equipped with an atomizing spray nozzle. The plants were dried in the sprayer fume hood and then removed from the sprayer. Each pot was placed into a plastic cup and about 10 to 12 whitefly adults (approximately 3-5 days old) were introduced. The insects were collected using an aspirator and a nontoxic Tygon® tubing connected to a barrier pipette tip. The tip, containing the collected insects, was then gently inserted into the soil containing the treated plant, allowing insects to crawl out of the tip to reach the foliage for feeding. Cups were covered with a reusable screened lid. Test plants were maintained in a growth room at about 25° C. and about 20-40% relative humidity for 3 days, avoiding direct exposure to fluorescent light (24 hour photoperiod) to prevent trapping of heat inside the cup. Mortality was assessed 3 days after treatment, compared to untreated control plants.

[5] = system: Southern Armyworm (Spodoptera eridania); test: Southern armyworm lima bean foliar spray test; details: 96 h
Method: as §1
(§2) Lima bean plants (variety Sieva) were grown 2 plants to a pot and selected for treatment at the 1st true leaf stage. Test solutions were sprayed onto the foliage by an automated electrostatic plant sprayer equipped with an atomizing spray nozzle. The plants were dried in the sprayer fume hood and then removed from the sprayer. Each pot was placed into perforated plastic bags with a zip closure. About 10 to 11 armyworm larvae were placed into the bag and the bags zipped closed. Test plants were maintained in a growth room at about 25° C. and about 20-40% relative humidity for 4 days, avoiding direct exposure to fluorescent light (24 hour photoperiod) to prevent trapping of heat inside the bags. Mortality and reduced feeding were assessed 4 days after treatment, compared to untreated control plants.

[6] = system: Tobacco Budworm (Heliothis virescens); test: Tobacco budworm cotton plant foliar spray test; details: 96 h
Method: as §1
as §2, with “Cotton” for “Lima bean”, “plants” for “plants (variety Sieva)”, “cotyledon” for “1st true leaf”, “budworm” for “armyworm”

[7] = system: Boll Weevil (Anthonomus grandis); test: Boll weevil microtiter plate diet test; details: 120 h
Method: For evaluating control of boll weevil (Anthonomus grandis) the test unit consisted of 24-well-microtiter plates containing an insect diet and 20-30 A. grandis eggs.
The compounds were formulated using a solution containing 75% v/v water and 25% v/v DMSO. Different concentrations of formulated compounds were sprayed onto the insect diet at 20 μl, using a custom built micro atomizer, at two replications. After application, microtiter plates were incubated at about 23±1° C. and about 50±5% relative humidity for 5 days. Egg and larval mortality was then visually assessed.

[8] = system: House Fly Adults (Musca domestica); test: House fly adults glass vial contact assay; details: 48 h after treatment, in comparison with untreated controls
Method: If not otherwise specified, the tests were conducted as glass vial contact assays. Glass vials (20 ml scintillation vials) were used. Treatment solutions were mixed with technical grade chemicals diluted in acetone. Treatment solutions needed for the assays included generally 1 and 10 ppm (0.01 and 0.1 μg/cm^2, respectively), but optionally also 100 and/or 1000 ppm for first tier vials. As commercial standard, alphacypermethrin, was run at 1 ppm. As solvent control, acetone was used for the assay. Treatment solution was pipetted into the bottom of each vial. Each vial was turned on its side and placed onto a commercial grade hot dog roller without applying heat. The uncapped vials were allowed to roll to allow for the acetone treatment to vent off. After drying, the vials were placed into the compartmented vial shipping boxes. The workstation was prepared by chilling the table and plastic Petri dishes with the inside wall coated with Fluon. A weigh boat of 10% sugar water saturated cotton dental pellets was also prepared. The animal pests were collected into a tube with a rechargeable insect vacuum. The tube of animal pests was placed in a laboratory refrigerator until the animal pests were incapacitated. The animal pests were emptied into chilled Petri dish. A small cotton dental pellet was soaked in water or in 10 wt % sugar water, whereas the excess solution was gently squeezed out. […]

[9] = system: yellowfever mosquito larvae (Aedes aegypti); test: Larval mosquito water treatment assay; details: 120 h, 5 DAT (days after treatment), first tier test, in comparison with untreated controls
Method: The assay was conducted in 6-well polystyrene plates using one plate per treatment rate. Stock solutions were prepared at 100 and 1000 ppm. Screen rates were at 1 and 10 ppm. Distilled water was added to each well, control wells were treated with acetone. Temephos (Abate technical) was used as the standard at 0.1 ppm. Ten late thirdinstar yellowfever mosquito larvae (Aedes aegypti) in water were added to each well. One drop of liver powder solution (6 g in 100 ml distilled water) was added to each well as a food source daily. Plates were maintained at 22-25° C. and 25-50% RH (relative humidity) and observed daily for dead larvae and pupae at 1, 2, 3, and 5 days after treatment. Dead larvae and all pupae were removed daily. Mortality was defined as an insect incapable of coordinated movement when agitated.

CON=C(c1ccc(C2=NOC(c3cc(Cl)cc(Cl)c3)(C(F)(F)F)C2)cc1C)N(C)C (stereo not drawn) [Compound 1-3, 4-[5-(3,5-Dichloro-phenyl)-5-trifluoromethyl-4,5-dihydro-isoxazol-3-yl]-N′-methoxy-2,N,N-trimethyl-benzamidine]
≥ 75%: mortality at 300 ppm [1] | mortality at 2500 ppm [2] | mortality at 300 ppm [3] | mortality at 300 ppm [4] | mortality at 300 ppm [5] | mortality at 2500 ppm [6] | mortality at 2500 ppm [7] | mortality at 10 ppm [8] | mortality at 1 ppm [9]
